In patent US7897789B2, “Vitamin D receptor modulators” (Eli Lilly and Company, priority 2003, dated 2011):
“And” between values parts separate entries of the source, which are not always exact repeats. Equal entries are not always repeated. Where two headings read alike, the source gives them in different places.

Experiments:
DBF mice = assay: Mouse hypercalcemia assay; conditions: oral gavage for 6 days
From the text: The Mouse Hypercalcemia Assay
The Mouse Hypercalcemia Assay is a six day hypercalcemia test for toxicity and selectivity.
(4) Materials and Method for the Mouse Hypercalcemia Assay:
Weanling, virus-antibody-free, five to six weeks old female DBF mice (Harlan, Indianapolis, Ind.) are used for all the studies. Animals are allowed to acclimate to local vivarium conditions for 2 days. […] The animals then are divided into groups with 4-5 mice per group. Different doses of test compounds prepared in 10% Ethanol and 90% sesame oil are administered to mice orally via gavage for 6 days. 1α-25(OH)2D3 0.5 μg/kg/d was also given to one group of mice as the positive control. […] Raw data of group differences is assessed by analysis of variance (ANOVA) using Fisher's protected least significant difference (PLSD) where the significance level was P<0.05.

rat osteocalcin promoter = assay: OCN (osteocalcin) promoter assay; type: cell-based; conditions: RG-15 (ROS 17/2.8) cells
Protocol: 3. The OCN (Osteocalcin) Promoter Assay
The OCN Promoter Assay is an indicator and marker for osteoporosis. […] Preferred assay results are less than 50 nM.
(3) Materials and Method for the OCN Promoter Assay:
The activation of osteocalcin by VDR ligands was evaluated in a rat osteoblast-like cell line RG-15 (ROS 17/2.8) stably expressing rat osteocalcin promoter fused with luciferase reporter gene. […] Confluent RG-15 cells maintained in DMEM/F-12 medium (3:1) containing 5% FBS, 300 μg/ml G418 and at 37° C. under 5% CO2/95% air atmosphere were trypsinized (0.25% trypsin) and plated into white opaque 96-well cell culture plates (25000 cells/well). After 24 hr, cells (in DMEM/F-12 medium+2% FBS) were treated with various concentrations of compounds, dissolved in DMSO. The final DMSO concentration remained at 0.01% (v/v). After 48 hr treatment, the medium was removed, cells were lysed with 50 μl of lysis buffer (From Luciferase reporter assay system, Roche Diagnostics, Indianapolis, Ind.) and assayed for luciferase activity using the Luciferase Reporter Gene Assay kit from Boehringer Mannheim as per manufacturer's specifications.

KERtr cells = assay: Keratinocyte proliferation assay; type: cell-based; conditions: Homo sapiens
Protocol: 5. The Keratinocyte Proliferation Assay
This Assay is indicative for the treatment of psoriasis.
(5) The Keratinocyte Proliferation Assay:
KERtr cells (Human skin keratinocyte transformed with a retrovirus vector, obtained from ATCC) were plated in 96-well flat-bottomed plates (3000 cells/well) in 100 μl keratinocyte serum free medium supplemented with bovine pituitary extract in the absence of EGF (Life Technologies, Rockville, Md.) and incubated at 37° C. for two days. The cells were treated with various concentrations of VDR ligands (ten-fold serial dilution from 10,000 nM to 0.1 nM in triplicate), dissolved in 100 μl keratinocyte serum free medium supplemented with bovine pituitary extract in the absence of EGF and incubated at 37° C. for 72 hr. […] Potency values (IC50) values were determined as the concentration (nM) of compound that elicited a half-maximal response.

VDR = biological target: T1, VDR (Homo sapiens, UniProt P11473); assay: Caco-2 cell co-transfection assay (VDR CTF); type: cell-based; conditions: Caco-2 cells, pGal4-VDR-LBD luciferase co-transfection; Table 1
T1 construct: the receptor expression vector pGal4-VDR-LBD (10 ng); expressed in transfected cells; host or cells: Caco-2 cells
T1 sequence (P11473 127-423 limits assumed): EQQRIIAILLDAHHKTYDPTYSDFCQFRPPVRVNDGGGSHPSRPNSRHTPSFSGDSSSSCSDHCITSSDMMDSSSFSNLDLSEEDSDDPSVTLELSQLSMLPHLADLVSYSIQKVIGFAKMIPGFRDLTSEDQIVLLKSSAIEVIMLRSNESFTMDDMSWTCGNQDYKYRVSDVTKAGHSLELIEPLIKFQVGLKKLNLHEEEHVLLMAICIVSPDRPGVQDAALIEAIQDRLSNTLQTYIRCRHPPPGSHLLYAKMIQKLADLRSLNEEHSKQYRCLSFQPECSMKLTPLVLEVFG
Protocol: 2. The Caco-2 Cell Co-Transfection Assay:
The Caco-2 cell assay is an indicator for the undesirable condition of hypercalcemia. This co-transfection assay is a surrogate assay for in vivo calcemic activity of VDR ligands. […] Preferred assay results are greater than 1000 nM.
(2) Materials and Method for The Caco-2 Cell Assay:
Caco-2 cells, grown in phenol red free, DMEM (Invitrogen, Carlsbad, Calif.) containing 10% charcoal-stripped FCS (Hyclone, Logan, Utah), were transfected with Fugene 6 reagent (Roche Diagnostics, Indianapolis, Ind.). Cells (5000/well) were plated 18 h before transfection in a 96 well plate. The Cells were transfected with Gal4-responsive reporter pFRLuc (150 ng, Stratagene, La Jolla Calif.) and the receptor expression vector pGal4-VDR-LBD (10 ng), along with Fugene 6 reagent (0.2 μl/well). The DNA-Fugene complex was formed by incubating the mixture for 30 min at room temperature. The cells were transfected in triplicate for 5 h, and treated with various concentrations of VDR ligands (form 0.01 nM to 10,000 nM concentration range) 18 h post-transfection. The luciferase activity was quantified using Steady-Glo reagent kit (Promega, Madison, Wis.) as per manufacturer's specifications.

RXR-VDR heterodimer = biological target: T2, RXR-VDR heterodimer (Homo sapiens, UniProt P11473); assay: RXR-VDR heterodimerization assay (SaOS-2 cells); type: cell-based; conditions: Gal4-RXR / VP16-VDR-LBD luciferase reporter, Table 1
T2 construct: Add the Gal4-RXR-DEF and VP16-VDR-LBD; expressed in transfected cells; host or cells: SaOS-2 cells
T2 sequence (P11473 127-423 limits assumed): T1 sequence (P11473 127-423 limits assumed)
T2 sequence (P19793 201-462 partner limits assumed): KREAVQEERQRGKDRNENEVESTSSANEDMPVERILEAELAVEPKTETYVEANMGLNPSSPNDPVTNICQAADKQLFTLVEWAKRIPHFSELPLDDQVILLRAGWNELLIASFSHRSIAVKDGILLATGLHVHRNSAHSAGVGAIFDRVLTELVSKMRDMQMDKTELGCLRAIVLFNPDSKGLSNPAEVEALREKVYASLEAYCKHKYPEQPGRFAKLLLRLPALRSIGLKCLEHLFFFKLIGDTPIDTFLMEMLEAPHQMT
Protocol: 1. The RXR-VDR HeterodimerAssay:
This assay provides the VDR activity of a test compound.
(1) Materials and Method for RXR-VDR Heterodimerization Assay:
Luciferase Assay Reagent: • Use Steady-Glo Luciferase Reagent from Promega (Cat #E2550) Consists of: a. E2533 Assay Substrate, lyopholized product and b. E2543 Assay Buffer. • Thaw at room temperature • Store Cell Harvesting Aspirate media from culture flask, rinse cells with HBSS and aspirate. Add trypsin and incubate. When cells appear detached, resuspend cells in growth media. Transfer into a new flask with fresh growth media for passaging the cells. Plate well plates and two extra plates A. Cell Count Mix the cell suspension using pipette Use Hematocytometer to count the cells Load cell suspension onto the hemocytometer chamber Count cells. […] In sterile flask add cell suspension to plating media. Mix. Add cells/well. Place the cells in the incubator. Cells should be about 75% confluent prior to transfection. DAY 2: Transfection Step 1: DNA and Media Add plain DMEM media to tubes for mixing the DNA Add the Reporter gene pFR-LUC Add the Gal4-RXR-DEF and VP16-VDR-LBD Step 2: FuGENE and Media Prepare plain DMEM media in a ubes for mixing FuGENE Add FuGENE 6 Transfection Reagent Incubate Step 3: FuGENE, DNA and Media Complex Add FuGENE Media complex from step 2 to DNA Media complex from step 1 Incubate Step 4: FuGENE, DNA and Media Complex to-well plate Add FuGENE-DNA-Media complex from step 3 to each plate Incubate. […] Day 4: Luciferase Assay Read the plates after drug treatment Remove part of media from all the wells and leave remainder Add Steady-Glo Luciferase Reagent mixture/wells Incubate Count each well using a Luminescence counter, Top Count NXT by Packard
Set a delay between plates to reduce the background.

[1] = Rattus norvegicus, comparison compounds, Table 3
[2] = comparison compounds, Table 4, read-out: Kera. Prolif. IC50
[3] = serum ionized calcium 6 hours after last dosing, Table 1
[4] = Rattus norvegicus, 48 h, 48 hr treatment, Table 1
[5] = 72 h, BrdU incorporation, Table 2, read-out: Kera. Prolif. IC50

Compound | EC50 (VDR) | EC50 (rat osteocalcin promoter; [4]) | IC50 (KERtr cells; [5]) | EC50 (RXR-VDR heterodimer) | also measured
CCC(CC)(c1ccc(OCC(O)CO)c(C)c1)c1ccc(OCC(O)C(C)(C)C)c(C)c1 (stereo not drawn) [BB, 3-(4-{1-Ethyl-1-[4-(2-hydroxy-3,3-dimethyl-butoxy)-3-methyl-phenyl]-propyl}-2-methyl-phenoxy)-propane-1,2-diol, reference compound] | – | – | – | – | Mouse Hypercal (DBF mice; comparison compounds, Table 3): 20 µg/kg/day; EC50 (rat osteocalcin promoter; [1]): 8.24 nM; IC50 (KERtr cells; [2]): 10 nM
CCC(CC)(c1ccc(OCC(=O)C(C)(C)C)c(C)c1)c1ccc(OCC(=O)C(C)(C)C)c(C)c1 [DD, reference compound] | – | – | – | – | Mouse Hypercal (DBF mice; comparison compounds, Table 3): 1000 µg/kg/day; EC50 (rat osteocalcin promoter; [1]): 31.1 nM; IC50 (KERtr cells; [2]): 1060 nM
CCC(CC)(c1ccc(OCC(=O)C(C)(C)C)c(C)c1)c1ccc(OC[C@H](O)C(C)(C)C)c(C)c1 [EE, reference compound] | – | – | – | – | Mouse Hypercal (DBF mice; comparison compounds, Table 3): 1000 µg/kg/day; EC50 (rat osteocalcin promoter; [1]): 341 nM
CCC(CC)(c1ccc(OCC(=O)C(C)(C)C)c(C)c1)c1cc2ccc(C(=O)O)cc2s1 [Ex 7, 2-{1-[4-(3,3-dimethyl-2-oxo-butoxy)-3-methyl-phenyl]-1-ethyl-propyl}-benzo[b]thiophene-6-carboxylic acid] | 791 nM | 1 nM | 1000 nM | – | Mouse Hypercal (DBF mice; [3]): >300 µg/kg/day
CCC(CC)(c1ccc(OCC(O)C(C)(C)C)c(C)c1)c1ccc2sc(C(=O)O)cc2c1 (stereo not drawn) [Ex 14, 5-{1-ethyl-1-[4-(2-hydroxy-3,3-dimethyl-butoxy)-3-methyl-phenyl]-propyl}-benzo[b]thiophene-2-carboxylic acid] | 941 nM | 6 nM | – | – | –
CCC(CC)(c1ccc(OCC(=O)C(C)(C)C)c(C)c1)c1ccc2sc(C(=O)NCC(=O)O)cc2c1 [Ex 15, [(5-{1-[4-(3,3-dimethyl-2-oxo-butoxy)-3-methyl-phenyl]-1-ethyl-propyl}-benzo[b]thiophene-2-carbonyl)-amino]-acetic acid] | – | – | – | 539 nM and 63 nM | Mouse Hypercal (DBF mice; [3]): <1000 µg/kg/day
CCC(CC)(c1ccc(OCC(O)C(C)(C)C)c(C)c1)c1ccc2sc(C(=O)NCC(=O)O)cc2c1 (stereo not drawn) [Ex 16, [(5-{1-ethyl-1-[4-(2-hydroxy-3,3-dimethyl-butoxy)-3-methyl-phenyl]-propyl}-benzo[b]thiophene-2-carbonyl)-amino]-acetic acid] | 938 nM | – | 384 nM | 254 nM and 108 nM | –
CCC(O)(CC)COc1ccc(C(CC)(CC)c2cc3ccc(C(=O)O)cc3s2)cc1C [Ex 22, 2-{1-Ethyl-1-[4-(2-ethyl-2-hydroxy-butoxy)-3-methyl-phenyl]-propyl}benzo[b]thiophene-6-carboxylic acid] | 1060 nM | – | 154 nM | 458 nM and 139 nM | –
CCOC(=O)c1cc2cc(C(CC)(CC)c3ccc(OCC4(C(C)(C)C)OCCO4)c(C)c3)ccc2s1 [Ex 23, 5-{1-[4-(2-tert-Butyl-[1,3]dioxolan-2-ylmethoxy)-3-methyl-phenyl]-1-ethyl-propyl}-benzo[b]thiophene-2-carboxylic acid ethyl ester] | – | 161 nM | – | – | –
CCC(CC)(c1ccc(OCC(=O)C(C)(C)C)c(C)c1)c1cc2cc(OS(C)(=O)=O)ccc2s1 [Ex 24, methanesulfonic acid 2-{1-[4-(3,3-dimethyl-2-oxo-butoxy)-3-methyl-phenyl]-1-ethyl-propyl}-benzo[b]thiophen-5-yl ester] | – | 215 nM | 232 nM | 695 nM | –
CCC(CC)(c1ccc(OCC(O)C(C)(C)C)c(C)c1)c1ccc2cc(C(=O)N(C)C)sc2c1 (stereo not drawn) [Ex. 4, 6-{1-ethyl-1-[4-(2-hydroxy-3,3-dimethyl-butoxy)-3-methyl-phenyl]-propyl}-benzo[b]thiophene-2-carboxylic acid dimethylamide] | 555 nM | 20 nM | – | – | EC50 (rat osteocalcin promoter; 48 hr treatment, Table 1): 15 nM
CCC(CC)(c1ccc(OCC(=O)C(C)(C)C)c(C)c1)c1cc2ccc(C(=O)N(C)C)cc2s1 [Ex. 9, 2-{1-[4-(3,3-Dimethyl-2-oxo-butoxy)-3-methyl-phenyl]-1-ethyl-propyl}-benzo[b]thiophene-6-carboxylic acid dimethylamide] | 1270 nM | 41 nM | 1000 nM | – | EC50 (rat osteocalcin promoter; 48 hr treatment, Table 1): 35 nM
CCC(CC)(c1ccc(OCC(O)C(C)(C)C)c(C)c1)c1cc2ccc(C(=O)N(C)C)cc2s1 (stereo not drawn) [Ex. 10, 2-{1-Ethyl-1-[4-(2-hydroxy-3,3-dimethyl-butoxy)-3-methyl-phenyl]-propyl}-benzo[b]thiophene-6-carboxylic acid dimethylamide] | 690 nM | 24 nM | 573 nM | 323 nM | EC50 (rat osteocalcin promoter; 48 hr treatment, Table 1): 18 nM
CCC(CC)(c1ccc(OCC(O)C(C)(C)C)c(C)c1)c1cc2ccc(C(=O)NCC(=O)O)cc2s1 (stereo not drawn) [Ex. 12, [(2-{1-Ethyl-1-[4-(2-hydroxy-3,3-dimethyl-butoxy)-3-methyl-phenyl]-propyl}-benzo[b]thiophene-6-carbonyl)-amino]-acetic acid] | 137 nM | 0.3 nM | 1 nM | 19 nM and 2 nM | –
CCC(CC)(c1ccc(OCC(=O)C(C)(C)C)c(C)c1)c1ccc2sc(C(=O)O)cc2c1 [Ex. 13, 5-{1-[4-(3,3-dimethyl-2-oxo-butoxy)-3-methyl-phenyl]-1-ethyl-propyl}-benzo[b]thiophene-2-carboxylic acid] | 994 nM | – | – | 488 nM and 111 nM | Mouse Hypercal (DBF mice; [3]): >300 µg/kg/day
